Consider 14 compounds from ChEMBL document CHEMBL5665443, “Enzyme Inhibitor Single Concentration assay results for EUbOPEN Chemogenomics Library” (2024).

The target in assay [1] is Methyl-CpG-binding domain protein 4 (Homo sapiens) (UniProt O95243). Particulars: Compound Concentration 10.0 uM.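 Also: MBD4 activity read as fluorescence at 594 nm from cleavage and release of a quenched duplex DNA oligonucleotide, with APE1 coupled to incise the strand and raise turnover.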
Description: Inhibition of MBD4 by quantifying inhibition of MBD4-mediated cleavage and dissociation of quenched duplex DNA oligonucleotides, measured as fluorescence at 594 nm. To generate a functional strand incision and increase turn-over this assay is coupled to APE1.
Assay [2] addresses DNA-3-methyladenine glycosylase (Homo sapiens) (UniProt P29372). Particulars: Compound Concentration 10.0 uM, Hit No.
Description: Inhibition of MPG by quantifying inhibition of MPG-mediated cleavage and dissociation of quenched duplex DNA oligonucleotides, measured as fluorescence at 594 nm. To generate a functional strand incision and increase turn-over this assay is coupled to APE1.
Assay [3] deals with T1, Adenine DNA glycosylase (Homo sapiens) (UniProt Q9UIF7).
T1 sequence (whole entry): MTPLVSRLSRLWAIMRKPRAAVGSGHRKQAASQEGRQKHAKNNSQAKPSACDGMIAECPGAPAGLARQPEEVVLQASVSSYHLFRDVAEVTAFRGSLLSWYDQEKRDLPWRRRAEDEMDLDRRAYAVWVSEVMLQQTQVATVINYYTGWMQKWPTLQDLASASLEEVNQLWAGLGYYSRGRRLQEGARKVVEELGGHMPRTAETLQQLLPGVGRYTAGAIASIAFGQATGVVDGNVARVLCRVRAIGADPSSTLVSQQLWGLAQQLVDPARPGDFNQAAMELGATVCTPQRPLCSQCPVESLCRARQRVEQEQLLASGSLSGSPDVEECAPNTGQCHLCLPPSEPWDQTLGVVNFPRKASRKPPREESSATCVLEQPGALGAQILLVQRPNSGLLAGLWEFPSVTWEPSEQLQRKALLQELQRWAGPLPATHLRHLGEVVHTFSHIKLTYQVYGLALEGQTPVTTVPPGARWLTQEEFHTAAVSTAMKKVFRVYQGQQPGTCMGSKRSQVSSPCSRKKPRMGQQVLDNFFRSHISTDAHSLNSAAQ
Particulars: Compound Concentration 10.0 uM, Hit No.
Description: Inhibition of MUTYH by quantifying inhibition of MUTYH-mediated cleavage and dissociation of quenched duplex DNA oligonucleotides, measured as fluorescence at 594 nm. To generate a functional strand incision and increase turn-over this assay is coupled to APE1.

Assay [4] has as its target Endonuclease 8-like 1 (Homo sapiens) (UniProt Q96FI4). Particulars: Compound Concentration 10.0 uM, Hit No.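 Also: fluorescence at 594 nm from quenched duplex DNA oligonucleotides released by NEIL1 cleavage and strand separation, reported as reduction of this enzyme activity.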
Description: Inhibition of NEIL1 by quantifying inhibition of NEIL1-mediated cleavage and dissociation of quenched duplex DNA oligonucleotides, measured as fluorescence at 594 nm.
For assay [5], the target named is T2, Endonuclease 8-like 2 (Homo sapiens) (UniProt Q969S2).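 Also: fluorescence at 594 nm reports NEIL2 cutting and release of a quenched double-stranded DNA oligo substrate, reduced signal read as inhibition.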
T2 sequence (whole entry): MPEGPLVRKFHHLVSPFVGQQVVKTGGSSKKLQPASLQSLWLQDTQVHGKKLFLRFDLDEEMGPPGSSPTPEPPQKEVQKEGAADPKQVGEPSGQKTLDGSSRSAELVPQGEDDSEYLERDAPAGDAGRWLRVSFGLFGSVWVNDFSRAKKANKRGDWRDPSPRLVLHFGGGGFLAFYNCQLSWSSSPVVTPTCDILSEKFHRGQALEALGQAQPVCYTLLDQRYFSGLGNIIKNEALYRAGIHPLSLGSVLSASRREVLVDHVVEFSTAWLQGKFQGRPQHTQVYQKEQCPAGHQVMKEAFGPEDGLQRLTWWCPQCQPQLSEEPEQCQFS
Particulars: Compound Concentration 10.0 uM.
Description: Inhibition of NEIL2 by quantifying inhibition of NEIL2-mediated cleavage and dissociation of quenched duplex DNA oligonucleotides, measured as fluorescence at 594 nm.

Assay [6] concerns the target T3, Endonuclease III-like protein 1 (Homo sapiens) (UniProt P78549).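 Also: enzyme assay tracking NTHL1 cutting and release of a quenched double-stranded DNA oligo substrate, read as fluorescence at 594 nm.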
T3 sequence (whole entry): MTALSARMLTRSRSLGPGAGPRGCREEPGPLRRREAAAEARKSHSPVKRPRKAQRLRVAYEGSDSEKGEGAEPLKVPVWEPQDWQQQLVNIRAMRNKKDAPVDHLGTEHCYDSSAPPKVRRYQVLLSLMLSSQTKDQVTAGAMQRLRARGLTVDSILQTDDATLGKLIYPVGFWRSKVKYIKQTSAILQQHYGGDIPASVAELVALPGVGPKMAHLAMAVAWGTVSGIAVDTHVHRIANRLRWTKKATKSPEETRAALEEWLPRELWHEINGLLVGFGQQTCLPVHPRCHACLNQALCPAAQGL
Particulars: Compound Concentration 10.0 uM, Hit No.
Description: Inhibition of NTHL1 by quantifying inhibition of NTHL1-mediated cleavage and dissociation of quenched duplex DNA oligonucleotides, measured as fluorescence at 594 nm.

Assay [7] has as its target N-glycosylase/DNA lyase (Homo sapiens) (UniProt O15527). Particulars: Compound Concentration 10.0 uM.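 Also: OGG1 cleavage of a quenched duplex DNA oligonucleotide, coupled to APE1 for strand incision, read as fluorescence at 594 nm.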
Description: Inhibition of OGG1 by quantifying inhibition of OGG1-mediated cleavage and dissociation of quenched duplex DNA oligonucleotides, measured as fluorescence at 594 nm. To generate a functional strand incision and increase turn-over this assay is coupled to APE1.
Assay [8] concerns the target T4, Single-strand selective monofunctional uracil DNA glycosylase (Homo sapiens) (UniProt Q53HV7).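 Also: enzymatic SMUG1 assay coupled with APE1, reading fluorescence at 594 nm released when a quenched double-stranded DNA oligonucleotide substrate is cleaved and separated.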
T4 sequence (whole entry): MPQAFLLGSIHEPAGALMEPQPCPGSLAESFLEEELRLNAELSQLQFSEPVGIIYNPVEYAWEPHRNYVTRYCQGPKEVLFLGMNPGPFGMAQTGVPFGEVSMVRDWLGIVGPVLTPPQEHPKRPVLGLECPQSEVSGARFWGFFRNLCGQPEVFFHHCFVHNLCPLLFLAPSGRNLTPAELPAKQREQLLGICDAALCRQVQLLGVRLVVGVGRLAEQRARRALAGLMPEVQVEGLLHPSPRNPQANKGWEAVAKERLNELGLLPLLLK
Particulars: Compound Concentration 10.0 uM, Hit No.
Description: Inhibition of SMUG1 by quantifying inhibition of SMUG1-mediated cleavage and dissociation of quenched duplex DNA oligonucleotides, measured as fluorescence at 594 nm. To generate a functional strand incision and increase turn-over this assay is coupled to APE1.

For assay [9], the target named is G/T mismatch-specific thymine DNA glycosylase (Homo sapiens) (UniProt Q13569). Particulars: Compound Concentration 10.0 uM.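 Also: human TDG cleavage of quenched duplex DNA oligonucleotides coupled to APE1, strand release read as fluorescence at 594 nm, inhibition of TDG activity.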
Description: Inhibition of TDG by quantifying inhibition of TDG-mediated cleavage and dissociation of quenched duplex DNA oligonucleotides, measured as fluorescence at 594 nm. To generate a functional strand incision and increase turn-over this assay is coupled to APE1.
The target in assay [10] is Uracil-DNA glycosylase (Homo sapiens) (UniProt P13051). Particulars: Compound Concentration 10.0 uM, Hit No.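 Also: UNG excision on a quenched double-stranded DNA oligo probe, with APE1 added for strand incision and turnover, read as fluorescence at 594 nm as strands separate.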
Uracil-DNA glycosylase (Homo sapiens), sequence (P13051 whole entry): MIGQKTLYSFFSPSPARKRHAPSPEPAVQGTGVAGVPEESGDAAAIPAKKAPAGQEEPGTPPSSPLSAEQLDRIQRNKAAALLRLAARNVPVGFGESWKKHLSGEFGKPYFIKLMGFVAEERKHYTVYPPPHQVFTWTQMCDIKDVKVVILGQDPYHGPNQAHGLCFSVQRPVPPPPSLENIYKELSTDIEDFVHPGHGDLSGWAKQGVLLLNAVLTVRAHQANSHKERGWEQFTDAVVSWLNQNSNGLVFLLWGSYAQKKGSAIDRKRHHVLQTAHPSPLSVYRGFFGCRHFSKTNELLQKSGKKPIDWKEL
Description: Inhibition of UNG by quantifying inhibition of UNG-mediated cleavage and dissociation of quenched duplex DNA oligonucleotides, measured as fluorescence at 594 nm. To generate a functional strand incision and increase turn-over this assay is coupled to APE1.

G/T mismatch-specific thymine DNA glycosylase (Homo sapiens), sequence (Q13569 whole entry): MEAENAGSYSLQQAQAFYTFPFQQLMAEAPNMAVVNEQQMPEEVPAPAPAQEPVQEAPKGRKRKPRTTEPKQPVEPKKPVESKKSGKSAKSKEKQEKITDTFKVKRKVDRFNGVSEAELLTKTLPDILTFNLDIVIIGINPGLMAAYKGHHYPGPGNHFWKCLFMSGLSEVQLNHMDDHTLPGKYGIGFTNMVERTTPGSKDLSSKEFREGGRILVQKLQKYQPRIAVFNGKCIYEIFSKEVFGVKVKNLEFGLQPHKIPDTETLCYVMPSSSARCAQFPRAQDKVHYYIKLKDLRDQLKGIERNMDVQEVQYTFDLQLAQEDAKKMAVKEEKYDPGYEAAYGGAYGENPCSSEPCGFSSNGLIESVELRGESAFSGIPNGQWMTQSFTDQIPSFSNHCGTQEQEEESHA
DNA-3-methyladenine glycosylase (Homo sapiens), sequence (P29372 whole entry): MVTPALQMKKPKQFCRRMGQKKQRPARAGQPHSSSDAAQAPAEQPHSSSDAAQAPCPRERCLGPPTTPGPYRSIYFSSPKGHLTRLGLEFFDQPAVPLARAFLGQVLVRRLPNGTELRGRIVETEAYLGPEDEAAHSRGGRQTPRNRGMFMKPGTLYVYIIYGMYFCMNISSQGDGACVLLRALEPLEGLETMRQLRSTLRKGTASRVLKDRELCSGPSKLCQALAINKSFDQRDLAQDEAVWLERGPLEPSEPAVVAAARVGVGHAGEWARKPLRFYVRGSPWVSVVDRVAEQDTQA
N-glycosylase/DNA lyase (Homo sapiens), sequence (O15527 whole entry): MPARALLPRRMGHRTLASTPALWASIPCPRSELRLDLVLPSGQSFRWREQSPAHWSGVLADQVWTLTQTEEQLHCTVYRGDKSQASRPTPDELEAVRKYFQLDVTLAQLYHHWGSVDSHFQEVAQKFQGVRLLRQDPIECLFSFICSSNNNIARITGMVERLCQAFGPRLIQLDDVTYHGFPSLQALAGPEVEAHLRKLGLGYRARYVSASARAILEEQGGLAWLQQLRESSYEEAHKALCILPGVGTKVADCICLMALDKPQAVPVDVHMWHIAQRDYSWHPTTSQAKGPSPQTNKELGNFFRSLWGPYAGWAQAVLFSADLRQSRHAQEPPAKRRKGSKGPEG
Endonuclease 8-like 1 (Homo sapiens), sequence (Q96FI4 whole entry): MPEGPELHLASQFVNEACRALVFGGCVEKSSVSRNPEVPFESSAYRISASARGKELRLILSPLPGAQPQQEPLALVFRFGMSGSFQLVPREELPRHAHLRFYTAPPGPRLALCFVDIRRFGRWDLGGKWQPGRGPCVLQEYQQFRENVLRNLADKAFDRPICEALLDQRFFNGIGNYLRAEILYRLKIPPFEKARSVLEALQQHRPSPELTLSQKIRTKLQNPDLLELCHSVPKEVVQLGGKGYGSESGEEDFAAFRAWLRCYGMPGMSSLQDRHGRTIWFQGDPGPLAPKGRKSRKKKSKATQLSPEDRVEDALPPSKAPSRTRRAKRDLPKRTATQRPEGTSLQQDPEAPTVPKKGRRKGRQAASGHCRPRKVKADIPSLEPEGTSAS
Methyl-CpG-binding domain protein 4 (Homo sapiens), sequence (O95243 whole entry, the tested form may be a part): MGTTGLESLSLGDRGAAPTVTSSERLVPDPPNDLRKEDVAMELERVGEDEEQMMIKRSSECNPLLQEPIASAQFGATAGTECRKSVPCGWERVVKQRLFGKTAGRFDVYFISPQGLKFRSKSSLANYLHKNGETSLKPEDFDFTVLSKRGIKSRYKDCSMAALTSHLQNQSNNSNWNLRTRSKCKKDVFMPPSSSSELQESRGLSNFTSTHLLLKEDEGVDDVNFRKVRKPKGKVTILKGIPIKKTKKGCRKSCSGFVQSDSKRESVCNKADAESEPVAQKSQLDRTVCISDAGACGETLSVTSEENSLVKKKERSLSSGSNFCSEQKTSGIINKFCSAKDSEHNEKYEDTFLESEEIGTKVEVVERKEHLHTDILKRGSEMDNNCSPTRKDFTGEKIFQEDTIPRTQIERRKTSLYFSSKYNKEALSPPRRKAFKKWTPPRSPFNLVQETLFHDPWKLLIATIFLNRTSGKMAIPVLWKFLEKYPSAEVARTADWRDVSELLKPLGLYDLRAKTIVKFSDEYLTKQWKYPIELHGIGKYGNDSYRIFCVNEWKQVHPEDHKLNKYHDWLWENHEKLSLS

Consider `Cn1ncnc1COc1nn2c(-c3cc(F)ccc3F)nnc2cc1C(C)(C)C`, for which the inhibition in assay [1] (Hit No) was 6.48%; in [2] it was -8.96%; in assay [3], -2.13%; in assay [4] it was 1.64%; in [5] (Hit No) it was -8.5%; in assay [6] it was -7.69%. The inhibition in [7] (Hit No) is -6.92%; in assay [8], -5.72%; in [9] (Hit No), 6.81%; in assay [10], -5.8%.

On to `COc1cc(Nc2ccc([N+](=O)[O-])cc2C(=O)O)cc2ccccc12`, for which the inhibition in assay [1] (Hit No) worked out at 71%; in assay [2] it was 44%; in assay [3] it was 91.9%; in [4] it was 3.71%; in assay [5] (Hit No) it was 5.25%; in [6], 11.3%. Further, the inhibition was 33.4% in assay [7] (Hit No), 23.2% in assay [8], 67.3% in assay [9] (Hit No) and 10.9% in assay [10].

Take `Cn1c(C2(NC(=O)c3ccc4c(C5CCCC5)c(-c5ncc(Br)cn5)n(C)c4c3)CCC2)nc2ccc(/C=C/C(=O)O)cc21`: the inhibition is 69.3% in [1] (Hit No); 107% in assay [2]; 68.7% in assay [3]; 12.4% in [4]; 40.3% in assay [5] (Hit Yes); 0.685% in assay [6]. The inhibition in assay [7] (Hit No) came to 60.3%; in assay [8], 25.4%; in [9] (Hit No), 101%; in [10] it was 13.1%.

Turning to `COc1ccc(-c2csc(NC(=O)[C@H]3CCCCN3S(=O)(=O)c3ccc(C)cc3)n2)cc1`, the inhibition in assay [1] (Hit No) is 10.3%; in [2], 12%; in assay [3], 11.1%; in [4] it was 4.6%; in assay [5] (Hit No), 3.47%; in [6] it was 22%. Also, the inhibition in assay [7] (Hit No) was -5.94%; in assay [8] it was 12.1%; in assay [9] (Hit No), 5.87%; in assay [10], -6.47%.

Take `O=S(=O)(Nc1nnc2cc(OCC34CC5CC(CC(C5)C3)C4)c(C3CC3)cn12)C1CC1`: the inhibition in assay [1] (Hit Yes) amounted to 80.9%; in assay [2], 62.1%; in [3] it was 84.7%; in assay [4], 6.23%; in assay [5] (Hit No), 11.9%; in assay [6], 10.5%. The inhibition in assay [7] (Hit Yes) turned out to be 53%; in assay [8] it was 11.5%; in assay [9] (Hit Yes), 73.8%; in assay [10], 12%.

In the case of `CC(C)C[C@@H](C(=O)N[C@@H](Cc1ccc(OCc2ccccc2)cc1)C(=O)NC(C)(C)C)N(C)Cc1ccc(C(C)(C)C)cc1`, the inhibition is 16.1% in assay [1] (Hit No); 6.32% in [2]; 5.01% in [3]; 2.38% in assay [4]; -9.01% in [5] (Hit No); 23.7% in assay [6]. Besides, the inhibition in assay [7] (Hit No) was 14.7%; in assay [8], -4.08%; in assay [9] (Hit No) it was 11.4%; in assay [10] it was -6.44%.

For the compound `COc1cc(C(=O)NS(=O)(=O)c2ccccc2C)ccc1Cc1cn(C)c2ccc(NC(=O)OC3CCCC3)cc12`, the inhibition in assay [1] (Hit No) was found to be 67.2%; in assay [2], 33.1%; in assay [3], 50.6%; in [4], 13.9%; in [5] (Hit No), 28.2%; in assay [6], 29.8%. Moreover, the inhibition came to 45.1% in assay [7] (Hit Yes), 24% in assay [8], 61.3% in assay [9] (Hit No) and 7.14% in assay [10].

Take `O=C(NCC(=O)N1CC[C@H](N[C@H]2CC[C@@](O)(c3ccc(-c4ncccn4)cn3)CC2)C1)c1cccc(C(F)(F)F)c1`: the inhibition in [1] (Hit No) is -4.26%; in [2], -2.02%; in [3], 10.3%; in assay [4], 2.76%; in assay [5] (Hit No) it was 6.25%; in assay [6], 0.458%. Besides, the inhibition in assay [7] (Hit No) was 1.04%; in assay [8] it was 2.1%; in assay [9] (Hit No), 24.3%; in assay [10], -9.06%.

`COc1ccc(OC)c(-c2ccc(NC(=O)c3ccncc3F)cc2)c1`: the inhibition was 23.8% in assay [1] (Hit No); 28% in assay [2]; -1.87% in [3]; 3.57% in [4]; -1.37% in assay [5] (Hit No); -0.258% in assay [6]. Moreover, the inhibition came out at 1.6% in assay [7] (Hit No), 24.3% in assay [8], 15.8% in [9] (Hit No) and 2.08% in assay [10].

Regarding `NC(=O)c1cc(-c2ccc(S(=O)(=O)[C@H]3CC[C@H](Nc4ccc(C(F)(F)F)cn4)CC3)cc2)ccn1`, the inhibition in [1] (Hit No) was 10.9%; in [2], -6.62%; in [3], 25.9%; in assay [4], 11%; in assay [5] (Hit No), 9.33%; in [6], 17.1%. Moreover, the inhibition is -3% in assay [7] (Hit No), 12.2% in [8], 8.07% in [9] (Hit No) and 4.02% in [10].

As to `CCc1cc(C(C)=O)c(O)cc1OCCCCCC(C)(C)c1nn[nH]n1`, the inhibition in assay [1] (Hit No) was 24%; in assay [2], 13%; in [3], 7.7%; in assay [4], -0.204%; in assay [5] (Hit No), -8.97%; in assay [6], 9.99%. The inhibition in assay [7] (Hit No) was 16.1%; in [8] it was 0.79%; in assay [9] (Hit No), 21.1%; in [10], -4.34%.

As for `O=C(O)CC1CCC2(CC1)CCN(c1cc(OC(F)(F)F)ccc1Cl)CC2`, the inhibition in assay [1] (Hit No) was 25.2%; in [2], 14.1%; in assay [3], 19.4%; in [4] it was 3.8%; in assay [5] (Hit No), 7.5%; in assay [6] it was -1.74%. The inhibition in assay [7] (Hit No) is 8.63%; in assay [8] it was 4.67%; in assay [9] (Hit No), 32.9%; in assay [10] it was -5.76%.

Take `Cc1cc(OCCCS(C)(=O)=O)cc(C)c1-c1cccc(COc2ccc3c(c2)OC[C@H]3CC(=O)O)c1`: the inhibition was 46.9% in [1] (Hit No); 12.1% in assay [2]; 49.2% in [3]; -4.36% in assay [4]; 8.25% in assay [5] (Hit No); 10.7% in assay [6]. For the same compound, the inhibition in assay [7] (Hit No) was 18.3%; in assay [8], 12.3%; in assay [9] (Hit No) it was 44.4%; in [10] it was -3.46%.

For `O=C(COc1cccc2ccccc12)Nc1cc(Cl)ccc1C(=O)O`, the inhibition in assay [1] (Hit No) came out at 33.2%; in [2], 16.5%; in assay [3], 64.4%; in assay [4] it was 6.38%; in [5] (Hit No) it was 5.25%; in [6], 12.9%. Further, the inhibition in assay [7] (Hit No) is 24.8%; in assay [8], 8.57%; in assay [9] (Hit No), 37.7%; in [10] it was 2.63%.

Broadly, the inhibition is the drop in the measured response relative to a control, in per cent.
